In patent US20260042764A1, “COMPOSITIONS AND METHODS FOR INHIBITION OF KRAS” (TheRas, Inc., priority 2022, published 2026):

Tests used:
[1] = target: T1, Avi-KRAS WT (2-169) GTP/RAF1 RBD-3xFLAG (51-131) (Homo sapiens, UniProt P01116); assay: Raf1-KRAS WT-GTP disruption HTRF assay (Biological Example 3); assay type: binding; settings: KRAS WT, GTP-loaded
T1 construct: Avi-KRAS WT (2-169)
Method in brief: (§1)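 An HTRF assay measured disruption of 50 nM Avi-KRAS (2-169)-GTP (WT, G12C, G12D or G12V) bound to RAF1 RBD-3xFLAG (51-131). Buffer was Tris pH 7.5 with 5 mM MgCl2 and 10% DMSO. Compounds (30–0.005 μM, 3-fold, 10 points) were incubated 1 h at room temperature, and activity is given as % of DMSO.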

[2] = target: T2, Avi-KRAS G12V (2-169) GTP/RAF1 RBD-3xFLAG (51-131) (Homo sapiens, UniProt P01116, G12V); assay: Raf1-KRAS G12V-GTP disruption HTRF assay (Biological Example 3); assay type: binding; settings: KRAS G12V, GTP-loaded
T2 construct: Avi-KRAS G12V (2-169)
Method in brief: as §1

SW620 cells (KRAS G12V) = assay: Cell-based pERK HTRF assay in SW620 cell (Biological Example 4); settings: Homo sapiens, SW-620, SW620 (KRAS G12V) cells
Method in brief: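 In SW620 cells grown in RPMI with 10% FBS, a 4 h compound treatment (0.25% DMSO, 9-point curve from 1 μM) preceded lysis. Phospho-ERK levels were then read by time-resolved FRET at 615 nm emission.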

[3] = target: T3, Avi-KRAS G12V (1-169) GppNHp/RAF1 RBD-3xFLAG (52-151) (Homo sapiens, UniProt P01116, G12V); assay: Raf1-KRAS G12V-GppNHP disruption HTRF assay (Biological Example 1); assay type: binding; settings: KRAS G12V-GppNHp/RAF1 RBD HTRF
T3 construct: Avi-KRAS G12V (1-169)
Method in brief: (§2)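 HTRF PPI disruption; buffer 50 mM Tris pH 7.5, 100 mM NaCl, 5 mM MgCl2, 0.1% BSA, 0.01% Tween, 10% DMSO. Protein mix 1 h RT shaking, reagent mix 1 h RT shaking. Data as % activity vs DMSO (100%).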

[4] = target: T4, Avi-KRAS G12R (1-169) GppNHp/RAF1 RBD-3xFLAG (52-151) (Homo sapiens, UniProt P01116, G12R); assay: Raf1-KRAS G12R-GppNHP disruption HTRF assay (Biological Example 1); assay type: binding; settings: KRAS G12R-GppNHp/RAF1 RBD HTRF
T4 construct: Avi-KRAS G12R (1-169)
Method in brief: as §2

[5] = target: T5, Avi-KRAS G12D (2-169) GTP/RAF1 RBD-3xFLAG (51-131) (Homo sapiens, UniProt P01116, G12D); assay: Raf1-KRAS G12D-GTP disruption HTRF assay (Biological Example 3); assay type: binding; settings: KRAS G12D, GTP-loaded
T5 construct: Avi-KRAS G12D (2-169)
Method in brief: as §1

[6] = target: T6, Avi-KRAS G12D (1-169) GppNHp/RAF1 RBD-3xFLAG (52-151) (Homo sapiens, UniProt P01116, G12D); assay: Raf1-KRAS G12D-GppNHP disruption HTRF assay (Biological Example 1); assay type: binding; settings: KRAS G12D-GppNHp/RAF1 RBD HTRF
T6 construct: Avi-KRAS G12D (1-169)
Method in brief: as §2

Measured: IC50

T4 sequence (P01116 1-169 isoform P01116-2 G12R): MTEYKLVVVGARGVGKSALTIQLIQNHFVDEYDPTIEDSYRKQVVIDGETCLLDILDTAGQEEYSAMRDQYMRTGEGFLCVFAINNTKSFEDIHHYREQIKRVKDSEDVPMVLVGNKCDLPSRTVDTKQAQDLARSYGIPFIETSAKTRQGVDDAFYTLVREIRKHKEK
T3 sequence (P01116 1-169 isoform P01116-2 G12V): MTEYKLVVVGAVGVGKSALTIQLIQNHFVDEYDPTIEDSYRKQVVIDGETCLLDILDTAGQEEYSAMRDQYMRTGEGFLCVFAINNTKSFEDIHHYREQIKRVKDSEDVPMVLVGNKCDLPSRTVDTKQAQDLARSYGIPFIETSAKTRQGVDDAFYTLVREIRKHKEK
T5 sequence (P01116 2-169 isoform P01116-2 G12D): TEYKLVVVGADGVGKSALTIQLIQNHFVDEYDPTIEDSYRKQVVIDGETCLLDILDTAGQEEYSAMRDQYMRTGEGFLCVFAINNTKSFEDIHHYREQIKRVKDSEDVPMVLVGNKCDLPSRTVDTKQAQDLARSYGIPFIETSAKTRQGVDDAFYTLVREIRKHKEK
T6 sequence (P01116 1-169 isoform P01116-2 G12D): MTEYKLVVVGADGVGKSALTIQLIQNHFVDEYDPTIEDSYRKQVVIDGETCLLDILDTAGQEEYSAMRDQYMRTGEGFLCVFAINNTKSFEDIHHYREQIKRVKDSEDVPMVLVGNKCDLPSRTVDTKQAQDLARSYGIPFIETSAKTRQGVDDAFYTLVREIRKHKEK
T1 sequence (P01116 2-169 isoform P01116-2): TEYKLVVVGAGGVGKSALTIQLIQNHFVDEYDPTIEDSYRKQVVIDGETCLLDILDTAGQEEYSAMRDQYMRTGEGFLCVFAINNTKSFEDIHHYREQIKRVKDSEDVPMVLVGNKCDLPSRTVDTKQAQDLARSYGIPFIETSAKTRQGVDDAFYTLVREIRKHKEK
T2 sequence (P01116 2-169 isoform P01116-2 G12V): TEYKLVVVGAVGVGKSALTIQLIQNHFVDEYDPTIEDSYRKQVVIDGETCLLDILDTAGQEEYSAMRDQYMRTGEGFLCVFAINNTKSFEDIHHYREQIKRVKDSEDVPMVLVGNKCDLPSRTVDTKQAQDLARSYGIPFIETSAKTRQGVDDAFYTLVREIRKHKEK

CCN(c1nc(OC[C@@]23CCCN2C[C@H](F)C3)nc2c(F)c(-c3ccc(F)c4sc(N)c(C#N)c34)c(C(F)(F)F)cc12)[C@H]1CCN(C(=O)c2ccon2)C1 (atropisomer, axis not shown) [Compound 554]
≤ 100 nM: [5]
100 to 1000 nM: [1] | [2]
< 100 nM: SW620 cells (KRAS G12V) | SW620 cells (KRAS G12V); pERK HTRF | [3] | [4] | [6]

CCN(c1nc(OC[C@@]23CCCN2C[C@H](F)C3)nc2c(F)c(-c3ccc(F)c4sc(N)c(C#N)c34)c(C(F)(F)F)cc12)[C@H]1C[C@H]2COC(=O)N2C1 (atropisomer, axis not shown; (aS)) [Compound 518, 2-amino-4-((S)-4-(ethyl((6S,7aS)-3-oxotetrahydro-1H,3H-pyrrolo[1,2-c]oxazol-6-yl)amino)-8-fluoro-2-(((2R,7aS)-2-fluorotetrahydro-1H-pyrrolizin-7a(5H)-yl)methoxy)-6-(trifluoromethyl)quinazolin-7-yl)-7-fluorobenzo[b]thiophene-3-carbonitrile]
≤ 100 nM: [1] | [2] | [5]
< 100 nM: SW620 cells (KRAS G12V) | SW620 cells (KRAS G12V); pERK HTRF | [3] | [4] | [6]

CCN(c1nc(OC[C@@]23CCCN2C[C@H](F)C3)nc2c(F)c(-c3ccc(F)c4sc(N)c(C#N)c34)c(C(F)(F)F)cc12)[C@H]1C[C@H]2CN(C)C(=O)N2C1 (atropisomer, axis not shown; (aS)) [Compound 543, 2-amino-4-((S)-4-(ethyl((6S,7aS)-2-methyl-3-oxohexahydro-1H-pyrrolo[1,2-c]imidazol-6-yl)amino)-8-fluoro-2-(((2R,7aS)-2-fluorotetrahydro-1H-pyrrolizin-7a(5H)-yl)methoxy)-6-(trifluoromethyl)quinazolin-7-yl)-7-fluorobenzo[b]thiophene-3-carbonitrile]
< 100 nM: SW620 cells (KRAS G12V) | SW620 cells (KRAS G12V); pERK HTRF | [3] | [4] | [6]
≤ 100 nM: [1] | [2] | [5]

CCN(c1nc(OC[C@@]23CCCN2C[C@H](F)C3)nc2c(F)c(-c3ccc(F)c4sc(N)c(C#N)c34)c(C(F)(F)F)cc12)[C@H]1CCN(C(=O)C(C)C)C1 (single isomer, unassigned) [Compound 469]
< 100 nM: SW620 cells (KRAS G12V) | SW620 cells (KRAS G12V); pERK HTRF | [3] | [4] | [6]
≤ 100 nM: [1] | [2] | [5]

Cc1c(C(=O)N(C)C)nn2c1CN(c1nc(OC[C@@]34CCCN3C[C@H](F)C4)nc3c(F)c(-c4ccc(F)c5sc(N)c(C#N)c45)c(C(F)(F)F)cc13)CC2 [Compound 501]
< 100 nM: SW620 cells (KRAS G12V) | SW620 cells (KRAS G12V); pERK HTRF | [4] | [6]
100 to 1000 nM: [1] | [2] | [3] | [5]

CCN(c1nc(OC[C@@]23CCCN2C[C@H](F)C3)nc2c(F)c(-c3ccc(F)c4sc(N)c(C#N)c34)c(C(F)(F)F)cc12)[C@@H]1C[C@@H]2CCC(=O)N2C1 [Compound 511]
1000 to 10000 nM: [2] | [4] | [5]
< 100 nM: SW620 cells (KRAS G12V) | SW620 cells (KRAS G12V); pERK HTRF
100 to 1000 nM: [1] | [3] | [6]

CCN(c1nc(OC[C@@]23CCCN2C[C@H](F)C3)nc2c(F)c(-c3ccc(F)c4sc(N)c(C#N)c34)c(C(F)(F)F)cc12)C1C[C@@H](C)N(C(=O)C2CC2)C1 (stereo partly shown) [Compound 516]
100 to 1000 nM: [1] | [2] | [3] | [5]
< 100 nM: SW620 cells (KRAS G12V) | SW620 cells (KRAS G12V); pERK HTRF | [4] | [6]

CN(C)C(=O)c1nn2c(c1Cl)CN(c1nc(OC[C@@]34CCCN3C[C@H](F)C4)nc3c(F)c(-c4ccc(F)c5sc(N)c(C#N)c45)c(C(F)(F)F)cc13)CC2 [Compound 517]
100 to 1000 nM: [1] | [2] | [5]
< 100 nM: SW620 cells (KRAS G12V) | SW620 cells (KRAS G12V); pERK HTRF | [3] | [4] | [6]

CCN(c1nc(OC[C@@]23CCCN2C[C@H](F)C3)nc2c(F)c(-c3ccc(F)c4sc(N)c(C#N)c34)c(C(F)(F)F)cc12)[C@@H]1CC(=O)N(C)C1 [Compound 520]
100 to 1000 nM: [1] | [2] | [3] | [4] | [5] | [6]
< 100 nM: SW620 cells (KRAS G12V) | SW620 cells (KRAS G12V); pERK HTRF

CCN1C[C@@H](N(CC)c2nc(OC[C@@]34CCCN3C[C@H](F)C4)nc3c(F)c(-c4ccc(F)c5sc(N)c(C#N)c45)c(C(F)(F)F)cc23)CC1=O [Compound 529, 2-amino-4-(4-(ethyl((S)-1-ethyl-5-oxopyrrolidin-3-yl)amino)-8-fluoro-2-(((2R,7aS)-2-fluorotetrahydro-1H-pyrrolizin-7a(5H)-yl)methoxy)-6-(trifluoromethyl)quinazolin-7-yl)-7-fluorobenzo[b]thiophene-3-carbonitrile]
≤ 100 nM: [1] | [2] | [5]
< 100 nM: SW620 cells (KRAS G12V) | SW620 cells (KRAS G12V); pERK HTRF | [3] | [4] | [6]

CCN(c1nc(OC[C@@]23CCCN2C[C@H](F)C3)nc2c(F)c(-c3ccc(F)c4sc(N)c(C#N)c34)c(C(F)(F)F)cc12)[C@@H]1CC(=O)N(C2CC2)C1 [Compound 537]
< 100 nM: SW620 cells (KRAS G12V) | SW620 cells (KRAS G12V); pERK HTRF | [3] | [4] | [6]
≤ 100 nM: [2] | [5]
100 to 1000 nM: [1]
